Assays:
[1] = system: B16F10 murine melanoma cells; assay: B16F10 tumor growth in C57BL/6 and STING knock-out mice; format: in vivo, C57BL/6 mice and C57BL/6-Tmem173^gt mice
Description: To confirm that the effects observed in FIGS. 54-58 were translated to anti-tumor activity, C57BL/6 mice and C57BL/6-Tmem173^gt mice were inoculated subcutaneously with 1×10^6 B16F10 murine melanoma cells (n=5 mice per group). Seven, ten, and thirteen days post-inoculation, the mice were injected intratumorally with PBS, exosomes, 20 μg of free 3-3 cAIMPdFSH, or 0.1 μg of 3-3 cAIMPdFSH loaded in PTGFRN-overexpressing exosomes. Tumor volumes were measured daily until day 19, and animals were sacrificed when tumor volume reached 2000 mm^3.

[2] = system: peritoneal cells and splenocytes; assay: Immune cell activation (CD86) in peritoneum and spleen 24 hours after intraperitoneal dose; format: in vivo, C57BL/6 mice; conditions: 20 μg single IP dose
Description: A second experiment similar to the previous study was carried out with single-dose IP administration, and extended to 24 hours. Peritoneal cells and splenocytes were isolated from treated mice, and cell activation was measured by detection of CD86.

[3] = system: B16F10 cells; assay: B16F10 re-challenge on the opposite flank; format: in vivo, C57BL/6 mice; conditions: 20 μg group, re-challenged day 21, read day 39
Excerpt: STING pathway activation leads to memory T-cell recruitment and ultimately a durable adaptive immune response. To determine whether the anti-tumor effects in this study led to an immune response, the five animals in the high dose STING agonist and Exo STING groups were re-challenged on day 21 by transplantation of 5×10^5 B16F10 cells on the opposite flank. Five additional naïve mice were inoculated with the same tumor cell preparation and treated daily with PBS to ensure cell viability and growth kinetics. By day 39 (18 days post-challenge) all mice in the PBS group were sacrificed.

[4] = system: A20 lymphoma cells; assay: CIVO intratumoral microinjection, IFNβ mRNA by in situ hybridization; format: in vivo, BALB/cAnNHsd mice; conditions: high dose free (printed 2 g), four hours post-injection
Description: (§1) All experiments in mice were approved by IACUC Board of Presage Biosciences, Seattle, Wash. (Protocol number PR-001) and were performed at Presage in accordance with relevant guidelines and regulations. All relevant procedures were performed under anesthesia and all efforts were made to minimize pain and suffering. Female BALB/cAnNHsd mice (Envigo) with an average weight of 18 gm were used for experiments at 5-7 weeks of age. For generating A20 allografts, mice were inoculated with 1 million A20 cells in 100 μl inoculation volume.
(§2) CIVO intra-tumoral microinjections were performed as described in Klinghoffer et al. (2016) Science Translational Medicine. Briefly, mice (n=6 per time point, 4 and 24 hours) were enrolled in microinjection studies when implanted tumors reached the following approximate dimensions: 14 mm (length), 10 mm (width) and 7 mm (depth). […]
(§3) Images of every cell from each tissue section stained were captured by digital, automated, high-resolution whole-tissue scanning (3D Histech Panoramic 250 Flash). Tumor responses were quantified from image files from each tissue section using Presage's custom CIVO Analyzer image analysis platform. […] In order to mitigate the influence of pre-existing necrosis on biomarker measurements, injection sites that fall within largely acellular tumor regions are excluded prior to quantitative analysis. […]

[5] = system: A20 lymphoma cells; assay: CIVO intratumoral microinjection, cleaved caspase 3 staining; format: in vivo, BALB/cAnNHsd mice
Description: as §1, §2, §3

Compound	tumor regression ([1]; C57BL/6-Tmem173^gt mice, 20 μg free)	tumor regression ([1]; C57BL/6 mice, free, printed 20 g, days 7, 10, 13)	peritoneal cell activation (CD86) [2]	spleen immune cell activation (CD86) [2]	animals in which re-challenge tumors failed to grow [3]	IFNβ mRNA levels [4]	cleaved caspase 3 (CC3) ([5]; high dose free (printed 2 g), four and 24 hours)	cleaved caspase 3 (CC3) ([5]; low dose free (printed 200 ng))
Nc1ncnc2c1ncn2[C@@H]1O[C@@H]2COP(=O)(S)O[C@H]3[C@@H](F)[C@H](n4cnc5c(=O)[nH]cnc54)O[C@@H]3COP(O)(=S)O[C@H]2[C@H]1F (some centres unmarked) [3-3 cAIMPdFSH, 3′3′-cAIMPdFSH]	no tumor regression was observed	dramatically improved tumor regression						
Nc1ncnc2c1ncn2[C@@H]1O[C@@H]2COP(O)(=S)O[C@@H]3C(O)[C@@H](COP(O)(=S)O[C@H]2[C@H]1O)O[C@H]3n1cnc2c(N)ncnc21 (some centres unmarked) [ML RR-S2 CDA]			activation of peritoneal B cells, macrophages, monocytes and conventional dendritic cells (cDCs)	moderate levels of immune cell activation	four out of 5	comparable between the high dose STING agonist and the PTGFRN O/E EXOSTING™ groups	dramatically increased at four and 24 hours	modest
